From patent US11076594B2, “Pyrazolone compound or salt thereof, preparation method therefor, herbicide composition and use thereof” (QINGDAO KINGAGROOT CHEMICAL COMPOUNDS CO., LTD., priority 2015, dated 2021)

Experiments:
Assay type in all cases: in vivo
wheat [1] = assay: post-emergence stage experiment, crop (Table 1); settings: post-emergence spray at 4-5 leaf stage, 250 g/ha active ingredient with 450 kg/ha water, rated after 3 weeks in greenhouse
How it was run: (§1)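 Weed and crop seeds sown in soil-filled pots under 0.5-2 cm soil, greenhouse-grown, then sprayed at 4-5 leaf stage (2-3 weeks after sowing) with compound in acetone/Tween 80/water. Fresh weight growth control rate assessed after 3 weeks in greenhouse.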

corn = assay: post-emergence stage experiment, crop (Table 1); settings: post-emergence spray at 4-5 leaf stage, 250 g/ha active ingredient with 450 kg/ha water, rated after 3 weeks in greenhouse
How it was run: as §1

rice (japonica rice) = assay: transplanted rice safety evaluation; settings: 125 g/ha ai; treated 5 days after transplantation; 21 days after treatment
Method: The activity level standard of harmful plant destruction (i.e. growth control rate) is as follows: In addition, the rice field soil that loaded into the 1/1,000,000 ha pot was leveled to keep water storage at 3-4 cm depth. The 3 leaf stage rice (japonica rice) was transplanted at 3 cm of transplanting depth the next day. The compound of the present invention was treated by the same way after 5 days of transplantation. The fertility condition of echinochloa, scirpus juncoides, bidens tripartite and sagittaria trifolia 14 days after the treatment of the compound of the invention and the fertility condition of rice 21 days after the treatment of the compound of the invention respectively with the naked eye.

wheat [2] = assay: wheat field test, crop selectivity, greenhouse spray at 4 leaf stage; settings: 4 weeks after treatment
How it was run: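 Potted plants grown in greenhouse were sprayed at the 4 leaf stage, 2–3 weeks post-sowing, with compound in acetone plus methyl oleate emulsion diluted in water. After 4 weeks of further greenhouse culture, growth control was scored as fresh weight control rate.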

alopecurus japonicas = assay: wheat field resistant weed control, greenhouse spray at 4 leaf stage; parameters: key: Level 10: completely dead; Level 9: above 95% growth control rate; Level 8: above 90% growth control rate; Level 7: above 80% growth control rate; Level 6: above 70% growth control rate; Level 5: above 60% growth control rate; Level 4: above 50% growth control rate; Level 3: above 20% growth control rate; Level 2: 5%-20% growth control rate; Level 1: below 5% growth control rate; settings: sprayed at 4 leaf stage, 4 weeks after treatment, resistant to ALS and ACCase inhibitor herbicides
How it was run: (§2)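 Pot-grown weeds sown under 0.5-2 cm soil were sprayed at the 4 leaf stage, 2-3 weeks after sowing, with compound in acetone plus methyl oleate emulsion diluted in water. Plants were kept 4 weeks in the greenhouse. Activity is the growth control rate on a fresh weight basis.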

shepherd's purse = assay: wheat field resistant broadleaf weed control, greenhouse spray at 4 leaf stage; parameters: key: Level 10: completely dead; Level 9: above 95% growth control rate; Level 8: above 90% growth control rate; Level 7: above 80% growth control rate; Level 6: above 70% growth control rate; Level 5: above 60% growth control rate; Level 4: above 50% growth control rate; Level 3: above 20% growth control rate; Level 2: 5%-20% growth control rate; Level 1: below 5% growth control rate; settings: 250 g/ha of the active substance; 4 weeks after treatment; ALS inhibitor resistant
How it was run: as §2

corn gromwell = assay: as above; parameters: key: Level 10: completely dead; Level 9: above 95% growth control rate; Level 8: above 90% growth control rate; Level 7: above 80% growth control rate; Level 6: above 70% growth control rate; Level 5: above 60% growth control rate; Level 4: above 50% growth control rate; Level 3: above 20% growth control rate; Level 2: 5%-20% growth control rate; Level 1: below 5% growth control rate; settings: 250 g/ha of the active substance; 4 weeks after treatment; ALS inhibitor resistant
How it was run: as §2

chickweed = assay: as above; parameters: key: Level 10: completely dead; Level 9: above 95% growth control rate; Level 8: above 90% growth control rate; Level 7: above 80% growth control rate; Level 6: above 70% growth control rate; Level 5: above 60% growth control rate; Level 4: above 50% growth control rate; Level 3: above 20% growth control rate; Level 2: 5%-20% growth control rate; Level 1: below 5% growth control rate; settings: 250 g/ha of the active substance; 4 weeks after treatment; ALS inhibitor resistant
How it was run: as §2

flixweed = assay: as above; parameters: key: Level 10: completely dead; Level 9: above 95% growth control rate; Level 8: above 90% growth control rate; Level 7: above 80% growth control rate; Level 6: above 70% growth control rate; Level 5: above 60% growth control rate; Level 4: above 50% growth control rate; Level 3: above 20% growth control rate; Level 2: 5%-20% growth control rate; Level 1: below 5% growth control rate; settings: 250 g/ha of the active substance; 4 weeks after treatment; ALS inhibitor resistant
How it was run: as §2

[3] = 2 g/mu, sprayed at 4 leaf stage
[4] = 4 g/mu, sprayed at 4 leaf stage
[5] = 8 g/mu, sprayed at 4 leaf stage
[6] = 16 g/mu, sprayed at 4 leaf stage
[7] = 32 g/mu, sprayed at 4 leaf stage
[8] = 250 g/ha of the active substance

Row | Compound | effect on crop, Wheat (level) (wheat [1]) | effect on crop, Corn (level) (corn) | Rice (activity level, transplanted rice safety) (rice (japonica rice)) | Wheat (activity level, crop damage) (wheat [2]; [3]) | Wheat (activity level, crop damage) (wheat [2]; [4]) | Wheat (activity level, crop damage) (wheat [2]; [5]) | Wheat (activity level, crop damage) (wheat [2]; [6]) | Wheat (activity level, crop damage) (wheat [2]; [7]) | Alopecurus japonicas weed controlling effect (activity level) (alopecurus japonicas; 1 g/mu) | Alopecurus japonicas weed controlling effect (activity level) (alopecurus japonicas; 2 g/mu) | Alopecurus japonicas weed controlling effect (activity level) (alopecurus japonicas; 4 g/mu) | Alopecurus japonicas weed controlling effect (activity level) (alopecurus japonicas; 8 g/mu) | shepherd's purse weed controlling effect (activity level) (shepherd's purse) | corn gromwell weed controlling effect (activity level) (corn gromwell) | chickweed weed controlling effect (activity level) (chickweed) | flixweed weed controlling effect (activity level) (flixweed) | Wheat (activity level, crop damage) (wheat [2]; [8])
1 | Cc1nn(C)cc1C(=O)Oc1c(C(=O)c2ccc(C(F)(F)F)c(N3CCCC3=O)c2Cl)c(C)nn1C [Compound 023] | 4 (Level 4: above 50% growth control rate) | 5 (Level 5: above 60% growth control rate) | 0 | 1 (Level 1: below 5% growth control rate) | 2 (Level 2: 5%-20% growth control rate) | 3 (Level 3: above 20% growth control rate) | 4 (Level 4: above 50% growth control rate) | 4 (Level 4: above 50% growth control rate) | 1 (Level 1: below 5% growth control rate) | 6 (Level 6: above 70% growth control rate) | 8 (Level 8: above 90% growth control rate) | 10 | – | – | – | – | –
2 | CCOc1c(C(=O)Oc2c(C(=O)c3ccc(C(F)(F)F)c(-n4cc(C)cn4)c3Cl)cnn2C)cnn1C [Compound 081] | 0 | 2 (Level 2: 5%-20% growth control rate) | 1 (Level 1: below 5% growth control rate) | – | – | – | – | – | – | – | – | – | 10 | 10 | 10 | 10 | 0
3 | CCOc1c(C(=O)Oc2c(C(=O)c3ccc(C(F)(F)F)c(-n4cc(C)cn4)c3Cl)c(C3CC3)nn2C)cnn1C [Compound 092] | 1 (Level 1: below 5% growth control rate) | 2 (Level 2: 5%-20% growth control rate) | 0 | – | – | – | – | – | – | – | – | – | 10 | 10 | 10 | 10 | 1 (Level 1: below 5% growth control rate)
4 | CCn1nc(C)c(C(=O)c2ccc(C(F)(F)F)c(-n3cccn3)c2Cl)c1OC(=O)c1cn(C)nc1C [Compound 129] | 1 (Level 1: below 5% growth control rate) | 3 (Level 3: above 20% growth control rate) | 2 (Level 2: 5%-20% growth control rate) | – | – | – | – | – | – | – | – | – | 10 | 10 | 10 | 10 | 1 (Level 1: below 5% growth control rate)

The next lines start with results.

Row | effect on crop, Wheat (level) (wheat [1]) | Compound | effect on crop, Corn (level) (corn) | Rice (activity level, transplanted rice safety) (rice (japonica rice)) | Wheat (activity level, crop damage) (wheat [2]; [3]) | Wheat (activity level, crop damage) (wheat [2]; [4]) | Wheat (activity level, crop damage) (wheat [2]; [5]) | Wheat (activity level, crop damage) (wheat [2]; [6]) | Wheat (activity level, crop damage) (wheat [2]; [7]) | Alopecurus japonicas weed controlling effect (activity level) (alopecurus japonicas; 1 g/mu) | Alopecurus japonicas weed controlling effect (activity level) (alopecurus japonicas; 2 g/mu) | Alopecurus japonicas weed controlling effect (activity level) (alopecurus japonicas; 4 g/mu) | Alopecurus japonicas weed controlling effect (activity level) (alopecurus japonicas; 8 g/mu) | shepherd's purse weed controlling effect (activity level) (shepherd's purse) | corn gromwell weed controlling effect (activity level) (corn gromwell) | chickweed weed controlling effect (activity level) (chickweed) | flixweed weed controlling effect (activity level) (flixweed) | Wheat (activity level, crop damage) (wheat [2]; [8])
5 | 0 | Cc1nn(C)c(O)c1C(=O)c1ccc(C(F)(F)F)c(N2CCCCC2=O)c1Cl [Compound 035] | – | 0 | 0 | 0 | 0 | 0 | 0 | 0 | 2 (Level 2: 5%-20% growth control rate) | 6 (Level 6: above 70% growth control rate) | 6 (Level 6: above 70% growth control rate) | – | – | – | – | –
6 | 0 | CCOc1c(C(=O)Oc2c(C(=O)c3ccc(C(F)(F)F)c(N4CCCCC4=O)c3Cl)c(C)nn2C)cnn1C [Compound 037] | 0 | 2 (Level 2: 5%-20% growth control rate) | – | – | – | – | – | – | – | – | – | 10 | 10 | 10 | 10 | 0
7 | 0 | CCOc1c(C(=O)Oc2c(C(=O)c3ccc(C(F)(F)F)c(-n4cccn4)c3Cl)c(C)nn2C)cnn1C [Compound 071] | 1 (Level 1: below 5% growth control rate) | 0 | – | – | – | – | – | – | – | – | – | 10 | 10 | 10 | 10 | 0
